Experimental data published in patent US20240270762A1, “PENICILLIN-BINDING PROTEIN INHIBITORS” (priority 2021, published 2024).
Values after ≈ are worked out from the molar mass of the structure shown.

How the values were obtained:
P. aeruginosa ATCC 27853 = assay: microbe, parasite or virus in culture; type: cell-based; settings: Pseudomonas aeruginosa, ATCC27853, read-out: MIC P. aeruginosa ATCC 27853
N. gonorrhoeae CDC-0197 = assay: Liquid broth MIC in Fastidious broth; settings: Neisseria gonorrhoeae, CDC0197, read-out: Minimum Inhibitory Concentration (MIC), N. gonorrhoeae CDC-0197
N. gonorrhoeae WHO K = assay: Liquid broth MIC in Fastidious broth; settings: Neisseria gonorrhoeae, read-out: Minimum Inhibitory Concentration (MIC), N. gonorrhoeae WHO K
N. gonorrhoeae WHO Q = assay: Liquid broth MIC in Fastidious broth; settings: Neisseria gonorrhoeae, read-out: Minimum Inhibitory Concentration (MIC), N. gonorrhoeae WHO Q
A. baumannii ATCC 19606 = assay: microbe, parasite or virus in culture; type: cell-based; settings: Acinetobacter baumannii, ATCC19606, read-out: MIC, A. baumannii ATCC 19606
N. gonorrhoeae WHO Z = assay: Liquid broth MIC in Fastidious broth; settings: Neisseria gonorrhoeae, read-out: Minimum Inhibitory Concentration (MIC), N. gonorrhoeae WHO Z
N. gonorrhoeae FA1090 = assay: Liquid broth MIC in Fastidious broth; settings: Neisseria gonorrhoeae, FA1090, read-out: Minimum Inhibitory Concentration (MIC), N. gonorrhoeae FA 1090
[1] = biological target: T1, PBP2 from Neisseria gonorrhoeae (FA19) (Neisseria gonorrhoeae, UniProt P08149); assay: Bocillin-FL fluorescence polarization competition binding, N. gonorrhoeae PBP2; settings: fluorescence polarization competition binding assay using Bocillin-FL, read-out: N. gonorrhoeae PBP2 Potency
T1 construct: made in house
T1 sequence (P08149 whole entry): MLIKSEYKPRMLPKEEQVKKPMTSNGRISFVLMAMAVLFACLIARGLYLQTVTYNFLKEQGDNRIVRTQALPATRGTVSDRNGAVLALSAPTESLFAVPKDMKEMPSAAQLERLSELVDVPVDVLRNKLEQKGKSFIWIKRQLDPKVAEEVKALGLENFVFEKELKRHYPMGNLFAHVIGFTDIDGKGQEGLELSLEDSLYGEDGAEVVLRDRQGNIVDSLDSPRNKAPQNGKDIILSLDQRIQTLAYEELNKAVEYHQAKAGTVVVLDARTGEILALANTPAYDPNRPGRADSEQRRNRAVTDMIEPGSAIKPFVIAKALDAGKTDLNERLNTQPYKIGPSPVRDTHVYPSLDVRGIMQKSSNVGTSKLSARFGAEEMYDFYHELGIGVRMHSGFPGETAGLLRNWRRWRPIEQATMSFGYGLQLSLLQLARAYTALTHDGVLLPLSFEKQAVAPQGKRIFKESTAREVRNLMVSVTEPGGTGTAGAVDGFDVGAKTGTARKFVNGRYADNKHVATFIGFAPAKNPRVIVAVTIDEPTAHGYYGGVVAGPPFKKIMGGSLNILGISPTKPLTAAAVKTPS
Excerpt: To determine the ability of boronic acid-based test PBP inhibitors to bind Penicillin Binding Proteins (PBPs), Bocillin-FL (fluorescently-labeled penicillin V; ThermoFisher Scientific) was used in a fluorescence polarization (FP) competition binding assay to assess inhibitor binding to PBP3 from Escherichia coli (K-12), PBP3 from Pseudomonas aeruginosa (PAO1), PBP1a and PBP3 from Acinetobacter baumannii (ATCC 19606), and PBP2 from Neisseria gonorrhoeae (FA19). PBPs were cloned and purified as described previously (E. coli PBP3, King, D. T, et al., ACS Infectious Diseases 2015, 1, 175-184; P. aeruginosa PBP3, Han et. al., PNAS 2010, 107 (51), 22002-22007; A. baumannii PBPs, Penwell et. al., Antimicrob. Agents Chemother. 2015, 59 (3), 1680-1689; N. gonorrhoeae PBP2, Singh et. al., J. Biol. Chem. 2019, 294 (38), 14020-14032). To establish assay conditions for competition binding, enzyme titration/saturation binding experiments were initially performed. Bocillin-FL was prepared at 0.2 μM in a buffer comprised of 50 mM Hepes (pH 8.0), 300 mM NaCl and 10% (v/v) glycerol for reactions with E. coli, P. aeruginosa and N. gonorrhoeae PBPs, and 25 mM Tris (pH 8.0), 200 mM NaCl, 10% (v/v) glycerol and 0.005% (v/v) Tween 20 for reactions with A. baumannii PBPs. Saturation binding was performed by mixing 40 μl of PBP solutions ranging in concentrations from 0-24 μM with 40 μl of the 0.2 μM Bocillin-FL solution, in individual wells of a black 384-well microplate. FP was measured immediately upon mixing (Excitation, 490 nm; Emission, 520 nm; g-factor, 0.96), using a Cytation3 (BioTek) microplate reader and measured continuously for up to 120 minutes. […] The competition binding assay (80 μl final volume) was validated using beta-lactams and PBPs at final concentrations of: 1.5 μM for E. coli PBP3; 0.75 μM for P. aeruginosa PBP3; 1 μM for A. baumannii PBP1a; 0.2 μM for A. baumannii PBP3; and 0.25 μM for N. gonorrhoeae PBP2. Bocillin-FL was at 0.1 μM (0.05 μM with A. baumannii PBP1a) and beta-lactam concentrations ranged from 0-1,000 μM. E. coli PBP3 was incubated with increasing concentrations of ampicillin in a black 384-well microplate (Corning) for 30 minutes. P. aeruginosa PBP3 was incubated for 15 minutes with aztreonam, whereas A. baumannii PBP1a and PBP3 were incubated for 15 minutes with meropenem, and then Bocillin-FL was added followed immediately by the FP measurement for up to 60 minutes. […] The beta-lactam potency was reported as the concentration of beta-lactam required to reduce the amount of PBP bound-Bocillin-FL by 50% (EC50). […] Binding assays for boronic acid PBP inhibitors were performed in an identical fashion for the respective PBPs.

Compound	MIC (P. aeruginosa ATCC 27853) [µg/mL]	MIC (N. gonorrhoeae CDC-0197) [µg/mL]	MIC (N. gonorrhoeae WHO K) [µg/mL]	MIC (N. gonorrhoeae WHO Q) [µg/mL]	MIC (A. baumannii ATCC 19606) [µg/mL]	MIC (N. gonorrhoeae WHO Z) [µg/mL]	MIC (N. gonorrhoeae FA1090) [µg/mL]	EC50 [1] [µM]
CCN1CCN(C(=O)NC(C(=O)N[C@H]2Cc3cccc(C(=O)O)c3OB2O)c2ccc(CP(=O)(O)O)cc2)C(=O)C1=O (stereo partly drawn) [Example 20, (3R)-3-(2-(4-ethyl-2,3-dioxopiperazine-1-carboxamido)-2-(4-(phosphonomethyl)phenyl)acetamido)-2-hydroxy-3,4-dihydro-2H-benzo[e][1,2]oxaborinine-8-carboxylic acid]	> 128	< 1	1 to 2 (≈ 1.66 to 3.32 µM)	< 1	32 to 64 (≈ 53.1 to 106 µM)	< 1	< 1	< 10
O=C(O)c1cccc2c1OB(O)[C@@H](NC(=O)[C@H](NC(=O)N1CCNC1=O)c1ccc(P(=O)(O)O)cc1)C2 [Example 40, (R)-2-hydroxy-3-((R)-2-(2-oxoimidazolidine-1-carboxamido)-2-(4-phosphonophenyl)acetamido)-3,4-dihydro-2H-benzo[e][1,2]oxaborinine-8-carboxylic acid]	32 to 64 (≈ 60.1 to 120 µM)	< 1	1 to 2 (≈ 1.88 to 3.76 µM)	< 1	32 to 64 (≈ 60.1 to 120 µM)	< 1	< 1	< 10
O=C(O)c1cccc2c1OB(O)[C@@H](NC(=O)[C@@H](NC(=O)N1CCCCC1=O)c1ccc(P(=O)(O)O)cc1)C2 [Example 36, (R)-2-hydroxy-3-((S)-2-(2-oxopiperidine-1-carboxamido)-2-(4-phosphonophenyl)acetamido)-3,4-dihydro-2H-benzo[39e][1,2]oxaborinine-8-carboxylic acid]	> 128	16 to 32 (≈ 29.3 to 58.7 µM)	16 to 32 (≈ 29.3 to 58.7 µM)	16 to 32 (≈ 29.3 to 58.7 µM)	> 128	16 to 32 (≈ 29.3 to 58.7 µM)	1 to 2 (≈ 1.83 to 3.67 µM)	10 to 50
CS(=O)(=O)N1CCN(C(=O)N[C@@H](C(=O)N[C@H]2Cc3cccc(C(=O)O)c3OB2O)c2cc(F)c(P(=O)(O)O)c(F)c2)C1=O (single isomer, unassigned) [Example 18]	> 128	< 1	< 1	< 1	32 to 64 (≈ 49.5 to 99 µM)	< 1	< 1	< 10
CCN1CCN(C(=O)NC(C(=O)N[C@H]2Cc3cccc(C(=O)O)c3OB2O)c2ccc(P(=O)(O)O)cc2)C1=O (stereo partly drawn) [Example 42, (3R)-3-(2-(3-ethyl-2-oxoimidazolidine-1-carboxamido)-2-(4-phosphonophenyl)acetamido)-2-hydroxy-3,4-dihydro-2H-benzo[e][1,2]oxaborinine-8-carboxylic acid]	> 128	< 1	1 to 2 (≈ 1.78 to 3.57 µM)	< 1	32 to 64 (≈ 57.1 to 114 µM)	< 1	< 1	< 10
CS(=O)(=O)N1CCN(C(=O)N[C@@H](C(=O)N[C@H]2Cc3ccc(F)c(C(=O)O)c3OB2O)c2ccc(P(=O)(O)O)c(F)c2)C1=O (single isomer, unassigned) [Example 19]	> 128	< 1	< 1	< 1	> 128	< 1	< 1	< 10
N[C@@H](C(=O)N[C@H]1Cc2cccc(C(=O)O)c2OB1O)c1ccc(P(=O)(O)O)cc1 (single isomer, unassigned) [Example 171]	> 128	> 64	> 64	> 64	> 128	> 64	> 64	10 to 50
